Here are results for seven molecules from patent US7671023B2 (Amylin Pharmaceuticals, Inc., priority 2005, dated 2010).

For one test, the system named is test animals. Kind of test: amylin activity in vivo in treated test animals (hyperlactemia followed by hyperglycemia). The following applies: e.g., provoking marked hyperlactemia followed by hyperglycemia.
Test [1] concerns mice. Nature of the test: marble burying. The class given is in vivo, mouse. Particulars: for reduction in marble burying, statistical significance: amylin at 10 mg/kg, buspirone at 20 mg/kg, P<0.05; for number of marbles buried in 30 minutes: injected 15-30 minutes prior to test, rat amylin 0.1, 1.0 or 10 mg/kg, buspirone 20/kg, FIG. 3. How it is done: (§1) These specific behavioral tests are known to be sensitive to anxiolytic, antidepressant, or antipsychotic drugs.
Marble burying is used as a model for both anxiety and obsessive-compulsive disorder. See, for example, Chaki et al. (2003) J. Pharmacol. Exp. Ther. 304:818-826. Anxiolytics suppress marble burying activity. […] Mice were then placed individually in clean cages containing 5-cm of hard wood bedding and 20 marbles spaced evenly in rows of five. The number of marbles buried in 30 minutes was recorded. […] Buspirone is a partial 5-HT1A agonist and an known anxiolytic agent.

Test [2] relates to mice. Nature of the test: prepulse inhibition (PPI) test. The following applies: amylin at 10 mg/kg; haloperidol 1 mg/kg; all prepulse levels tested (74, 78, and 82 dB); 120 dB stimulus; FIG. 5. The class given is in vivo, mouse.
Text: as §1
The prepulse inhibition (PPI) test measures the reflex response to externally applied auditory stimulation (acoustic startle response) and is related to the deficiency in sensory-motor gating capacity seen in schizophrenia. The acoustic startle reflex is a very basic response to strong exteroceptive stimuli and is widely used to assess sensorimotor reactivity in animals and humans. A weak auditory stimulus (prepulse, 74-82 dB) given prior to the strong acoustic stimulus (120 dB) blunts the startle response. This blunting of the startle response is referred to as prepulse inhibition. […] Antipsychotics increase the ability of the prepulse stimulus to blunt the startle response to the strong stimulus. Some psychotomimetic agents, such as phencyclidine (PCP) and ketamine, can actually reduce the percent prepulse inhibition and stimulate a psychotic-like state in animals, which can be antagonized by antipsychotic agents.
The mice were placed into an animal holder and the holder placed onto a transducer platform in an acoustic chamber. A weak auditory stimulus (prepulse) of 74, 78 and 82 dB was given prior to the strong acoustic stimulus (120 dB). The amount of the animal's “reaction” to the strong stimulus was recorded. […]

In test [3] the test system is Adult, male Sprague-Dawley rats. Nature of the test: weight gain induced by clozapine. The following applies: rat amylin 10 μg/kg/day co-administered with clozapine […], osmotic pump, 4 weeks; FIG. 7B. Type of test: in vivo.
Test [4] has as its system mice. Nature of the test: stress-induced hyperthermia (SIH) assay. Type of test: in vivo, mouse.
Text: as §1
Body temperature and emotional state are closely related in humans, and stress-induced hyperthermia (SIH) in mice is considered to have predictive validity for certain human anxiety/stress disorders. The SIH assay assesses the effect of anxiolytics or test agents on stress-induced hyperthermia and measures the intrinsic effects of these drugs on core body temperature of the animal. See, for example, Zethof et al. (1994) Physiol. Behav. […] Anxiolytics blunt the increase in body temperature, or hyperthermic response, following stress exposure. […] Mice were subjected to two sequential rectal temperature measurements ten minutes apart. The stress from the first measurement induces hyperthermia which was measured by the second temperature measurement. The difference between the two temperatures (ΔT) was the stress-induced hyperthermia.

Test [5] relates to mice. Kind of test: phencyclidine (PCP)-induced locomotion test. The class given is in vivo, mouse.
Text: as §1
The PCP-induced locomotion test is used with the open field activity chambers and measures locomotion, rearing, and stereotypic activity under amphetamine/PCP-induced conditions. The test has predictive validity for some antipsychotic drugs that normalize the hyperactivity and stereotypic behavior seen with amphetamine and PCP. See, for example, Williams et al. (2006) Prog. Neuropsychopharmacol. Biol. Psychiatry 30:239-243. […] The animals were then placed in the center of an open field and activity was recorded for 60 minutes. […] CZP is an atypical, second generation antipsychotic drug has a mixed receptor profile, including the dopamine receptor.

Test [6] deals with Male, Sprague-Dawley rats. Kind of test: sugar withdrawal paradigm with restraint stress (stress-induced feeding). Type of test: in vivo. The following applies: rat amylin 300 μg/kg/d by osmotic pump. On the procedure: Male, Sprague-Dawley® rats were submitted to a sugar withdrawal paradigm and observed for effects of stress on sugar intake. […] All rats were provided with ad libitum access to standard chow, water, and a 30% sucrose drink. Subsequently, the sucrose drink was removed and half of the rats were subjected, daily, to 3 h of mild restraint stress for 3 successive days. After 3 days, sucrose was provided and its daily average consumption was measured over 4 days. Chow intake was also measured over the 3 days of withdrawal and stress and over the following 4 days when sucrose was re-introduced. No restraint was applied during the 4 days of sucrose re-introduction. Results of this assay are shown in FIG. 1 where * is P<0.05 by ANOVA and Fisher LSD post-hoc analyses.

The test system of test [7] is mice. Nature of the test: forced swim test (FST). Type of test: in vivo, mouse. The following applies: delivered continuously for two weeks by subcutaneous osmotic pumps; 5 minute trial session; FIG. 4.
Text: as §1
The forced swim test (FST) is a commonly used paradigm to evaluate antidepressant activity of drugs. This test is based on measurement of the animal's floating time in a tank filled with water. When rats or mice are forced to swim in a deep cylinder with tepid water they become nearly immobile and cease trying to escape. This characteristic immobile posture is thought to reflect a depressive-like state and is readily influenced by a wide variety of antidepressants. See, for example, Hédou et al. (2001) Pharmacol., Biochem. Behav. […] Antidepressants decrease the immobility time in the FST. Rat amylin or vehicle was delivered continuously for two weeks to mice by subcutaneously implanted osmotic pumps prior to the FST. On day one, the mice were placed in the water tank for a 15 minute pre-swim session. On day two, the mice were placed back into the water tank for assessment of climbing, swimming, and immobility over a 5 minute trial session.

For the molecule `CC[C@H](C)[C@H](NC(=O)[C@@H]1CCCN1C(=O)CNC(=O)[C@H](Cc1ccccc1)NC(=O)[C@H](CC(N)=O)NC(=O)[C@H](CC(N)=O)NC(=O)[C@H](CO)NC(=O)[C@H](CO)NC(=O)[C@H](Cc1c[nH]cn1)NC(=O)[C@@H](NC(=O)[C@H](CC(C)C)NC(=O)[C@H](Cc1ccccc1)NC(=O)[C@H](CC(N)=O)NC(=O)[C@H](C)NC(=O)[C@H](CC(C)C)NC(=O)[C@H](CCCNC(=N)N)NC(=O)[C@H](CCC(N)=O)NC(=O)[C@@H](NC(=O)[C@H](C)NC(=O)[C@@H]1CSSC[C@H](NC(=O)[C@@H](N)CCCCN)C(=O)N[C@@H](CC(N)=O)C(=O)N[C@@H]([C@@H](C)O)C(=O)N[C@@H](C)C(=O)N[C@@H]([C@@H](C)O)C(=O)N1)[C@@H](C)O)C(C)C)C(=O)N[C@@H](CC(C)C)C(=O)N1CCC[C@H]1C(=O)N1CCC[C@H]1C(=O)N[C@H](C(=O)N[C@@H](CC(N)=O)C(=O)N[C@H](C(=O)NCC(=O)N[C@@H](CO)C(=O)N[C@@H](CC(N)=O)C(=O)N[C@H](C(=O)N[C@@H](Cc1ccc(O)cc1)C(N)=O)[C@@H](C)O)C(C)C)[C@@H](C)O` [^25,28,29Pro-h-amylin, reference compound], in the test with test animals, the “amylin activity in vivo” value is “show amylin activity in vivo”.

In the case of `O=C1CC2(CCCC2)CC(=O)N1CCCCN1CCN(c2ncccn2)CC1` [buspirone, reference compound], in the test with mice [1], the “reduction in marble burying, statistical significance” value was “statistically significant” and the “number of marbles buried in 30 minutes” value was “reduced the number of marbles buried”.

Turning to “^28Pro-h-amylin (KCNTATCATQRLANFLVHSSNNFGAILPSTNVGSNTY)”, the “amylin activity in vivo” value in the test on test animals is “show amylin activity in vivo”.

Regarding `O=C(CCCN1CCC(O)(c2ccc(Cl)cc2)CC1)c1ccc(F)cc1` [halperidol, haloperidol, reference compound], the “percent of prepulse inhibition” value in the test on mice [2] is reported as “significantly increased the percent of prepulse inhibition”.

On to “des-^1Lys-h-amylin (CNTATCATQRLANFLVHSSNNFGAILSSTNVGSNTY)”, for which, in the test with test animals, the “amylin activity in vivo” value is reported as “show amylin activity in vivo”.

Turning to “des-^1Lys^18Arg^25,28Pro-h-amylin (CNTATCATQRLANFLVRSSNNFGPILPSTNVGSNTY)”, the “amylin activity in vivo” value in the test on test animals is listed as “show amylin activity in vivo”.

In the case of “KCNTATCATQRLANFLVRSSNNLGPVLPPTNVGSNTY (listed as Rattus sp.) [rat amylin, 37-amino acid polypeptide hormone; rat species variant of amylin]”, the “percent of prepulse inhibition” value in the test on mice [2] is “significantly increased the percent of prepulse inhibition”. In addition, in test [3], the “weight gain observed with clozapine alone” value was “prevented the weight gain”. For the same molecule, the “SIH response (ΔT)” value in the test on mice [4] (acute, 60 minutes before the assay, rat amylin 0.1, 1.0 or 10 mg/kg, chlordiazepoxide 10 mg/kg, FIG. 2) is given as “blunted the SIH response”. For the same molecule, in the test on mice [4] (subcutaneously implanted pumps, amylin 300 μg/kg/d, CDP 10 mg/kg/d, at both 1 week and 4 weeks of administration), the “SIH response (ΔT), chronic infusion” value is “significantly blunted the SIH response”. In the test with mice [5] (agent alone, without PCP), the baseline activity result is “did not affect baseline activity”. The “rearing activity and PCP-induced rearing activity” value in the test on mice [5] (open field, with and without 5 mg/kg PCP) is “reduced rearing activity and PCP-induced rearing activity”. The total distance traveled result in the test with mice [5] (rat amylin 0.1, 1.0 or 10 mg/kg or 3 mg/kg clozapine 15-30 minutes prior to 5 mg/kg PCP, total, central, and peripheral, 60 minutes, FIG. 6) is “significantly reduced the total distance traveled”. Also, the “average sucrose to chow consumption ratio (as % of baseline)” value in test [6] (3 h mild restraint stress daily for 3 days, sucrose intake over following 4 days, FIG. 1A) is reported as “prevents the increase in the average sucrose to chow consumption ratio”. Further, in test [6] (restraint stress, FIG. 1B), the “chow consumption (stress-induced decrease)” value is recorded as “protects against this behavioral response to stress”. Further, the “time spent in the immobile state” value with mice [7] is “significantly reduced the time spent in the immobile state”. Also, in the test on mice [1], the “reduction in marble burying, statistical significance” value is on record as “statistically significant” and the “number of marbles buried in 30 minutes” value is listed as “reduced the number of marbles buried”.
